In assay [1] the target is Cell division cycle 7-related protein kinase (Homo sapiens, UniProt O00311).
Assay [2] deals with T1, Structural maintenance of chromosomes protein 1A (Homo sapiens, UniProt Q14683).
T1 sequence (Q14683 whole entry): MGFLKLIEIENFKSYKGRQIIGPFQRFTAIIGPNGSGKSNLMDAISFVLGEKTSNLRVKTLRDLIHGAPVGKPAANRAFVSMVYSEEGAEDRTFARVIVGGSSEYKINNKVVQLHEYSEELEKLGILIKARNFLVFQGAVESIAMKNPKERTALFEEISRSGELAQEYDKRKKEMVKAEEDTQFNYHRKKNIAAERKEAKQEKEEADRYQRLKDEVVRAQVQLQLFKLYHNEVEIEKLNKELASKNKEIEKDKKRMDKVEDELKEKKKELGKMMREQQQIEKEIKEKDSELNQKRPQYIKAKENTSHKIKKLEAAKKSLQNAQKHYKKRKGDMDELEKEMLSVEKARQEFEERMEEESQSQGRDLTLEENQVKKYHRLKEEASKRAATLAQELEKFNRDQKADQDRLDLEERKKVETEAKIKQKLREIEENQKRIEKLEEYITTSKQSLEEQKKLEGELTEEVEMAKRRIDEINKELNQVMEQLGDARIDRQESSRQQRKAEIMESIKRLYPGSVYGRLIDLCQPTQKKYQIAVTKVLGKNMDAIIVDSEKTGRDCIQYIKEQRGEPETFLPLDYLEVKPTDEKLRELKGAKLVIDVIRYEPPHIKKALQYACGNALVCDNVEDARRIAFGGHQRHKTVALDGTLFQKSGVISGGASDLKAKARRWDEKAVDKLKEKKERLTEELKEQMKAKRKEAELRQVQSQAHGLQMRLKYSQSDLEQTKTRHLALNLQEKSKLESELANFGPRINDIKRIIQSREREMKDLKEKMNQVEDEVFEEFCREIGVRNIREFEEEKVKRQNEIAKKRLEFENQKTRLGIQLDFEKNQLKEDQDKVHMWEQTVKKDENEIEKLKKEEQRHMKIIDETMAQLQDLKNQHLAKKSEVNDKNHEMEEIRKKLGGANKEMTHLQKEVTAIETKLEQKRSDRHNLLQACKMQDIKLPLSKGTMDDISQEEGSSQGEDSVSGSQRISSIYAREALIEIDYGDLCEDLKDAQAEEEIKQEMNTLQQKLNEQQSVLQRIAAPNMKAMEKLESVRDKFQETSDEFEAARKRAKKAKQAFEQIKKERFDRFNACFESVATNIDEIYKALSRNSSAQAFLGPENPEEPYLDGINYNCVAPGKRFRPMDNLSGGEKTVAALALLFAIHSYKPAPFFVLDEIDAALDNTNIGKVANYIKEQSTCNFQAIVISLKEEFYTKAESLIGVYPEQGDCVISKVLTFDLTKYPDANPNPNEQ

Assay [3] concerns the target T2, Dual specificity protein kinase TTK (Homo sapiens, UniProt P33981).
T2 sequence (P33981 whole entry): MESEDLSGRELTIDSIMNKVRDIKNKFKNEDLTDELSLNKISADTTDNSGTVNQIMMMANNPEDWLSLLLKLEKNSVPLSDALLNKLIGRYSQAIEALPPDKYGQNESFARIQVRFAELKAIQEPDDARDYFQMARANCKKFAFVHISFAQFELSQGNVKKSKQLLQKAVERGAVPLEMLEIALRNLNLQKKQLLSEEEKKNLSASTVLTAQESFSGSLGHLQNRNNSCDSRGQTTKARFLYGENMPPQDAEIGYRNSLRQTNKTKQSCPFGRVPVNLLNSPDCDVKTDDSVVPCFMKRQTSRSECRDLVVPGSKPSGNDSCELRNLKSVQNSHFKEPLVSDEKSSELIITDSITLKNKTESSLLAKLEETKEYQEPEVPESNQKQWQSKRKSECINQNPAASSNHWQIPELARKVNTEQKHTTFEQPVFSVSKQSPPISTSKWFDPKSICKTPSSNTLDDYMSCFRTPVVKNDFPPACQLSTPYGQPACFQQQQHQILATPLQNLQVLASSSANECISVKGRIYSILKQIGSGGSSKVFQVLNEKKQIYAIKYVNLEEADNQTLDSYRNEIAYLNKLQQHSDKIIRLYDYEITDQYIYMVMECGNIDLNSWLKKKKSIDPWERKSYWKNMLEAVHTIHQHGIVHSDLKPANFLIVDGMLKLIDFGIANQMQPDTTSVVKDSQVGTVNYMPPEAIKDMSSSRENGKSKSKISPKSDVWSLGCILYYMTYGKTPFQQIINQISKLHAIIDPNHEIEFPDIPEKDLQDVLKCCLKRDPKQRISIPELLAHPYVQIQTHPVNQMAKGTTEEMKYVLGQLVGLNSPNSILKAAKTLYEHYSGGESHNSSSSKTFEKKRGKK

The target of assay [4] is T3, Discoidin domain-containing receptor 2 (Homo sapiens, UniProt Q16832).
T3 sequence (Q16832 whole entry): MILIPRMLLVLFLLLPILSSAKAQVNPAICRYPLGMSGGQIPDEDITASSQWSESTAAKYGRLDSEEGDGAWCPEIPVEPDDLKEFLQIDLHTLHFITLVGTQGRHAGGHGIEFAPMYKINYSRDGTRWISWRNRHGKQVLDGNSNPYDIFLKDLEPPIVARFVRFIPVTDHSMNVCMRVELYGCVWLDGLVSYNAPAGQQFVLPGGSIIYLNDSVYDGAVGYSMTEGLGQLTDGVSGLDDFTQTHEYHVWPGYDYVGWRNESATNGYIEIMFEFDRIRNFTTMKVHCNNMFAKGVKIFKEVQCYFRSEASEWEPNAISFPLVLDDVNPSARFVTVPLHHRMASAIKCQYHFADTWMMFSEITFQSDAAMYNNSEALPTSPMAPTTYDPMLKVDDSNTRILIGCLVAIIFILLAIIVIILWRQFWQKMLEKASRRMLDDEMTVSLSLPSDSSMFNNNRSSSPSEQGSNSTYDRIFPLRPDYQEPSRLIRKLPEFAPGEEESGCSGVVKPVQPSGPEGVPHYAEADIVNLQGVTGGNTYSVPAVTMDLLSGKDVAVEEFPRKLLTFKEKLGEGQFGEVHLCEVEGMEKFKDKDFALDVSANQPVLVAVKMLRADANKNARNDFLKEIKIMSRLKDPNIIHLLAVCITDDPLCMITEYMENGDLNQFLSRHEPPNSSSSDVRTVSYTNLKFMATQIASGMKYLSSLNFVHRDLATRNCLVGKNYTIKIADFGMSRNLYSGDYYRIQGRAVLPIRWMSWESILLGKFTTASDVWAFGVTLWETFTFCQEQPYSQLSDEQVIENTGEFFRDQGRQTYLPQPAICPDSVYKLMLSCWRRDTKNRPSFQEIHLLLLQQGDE

For assay [5], the target named is Choline-phosphate cytidylyltransferase A (Homo sapiens, UniProt P49585).
Assay [6] deals with Serine/threonine-protein kinase MRCK gamma (Homo sapiens, UniProt Q6DT37).

Kd data for four compounds are collected here from ChEMBL document CHEMBL3991601, “The target landscape of clinical kinase drugs” (Science, 2017).

Each structure is given as a SMILES string. The source made the active and inactive calls.
Note: in the data inactive means no Kd found up to 30 µM.

Sequence of Serine/threonine-protein kinase MRCK gamma (Q6DT37 whole entry): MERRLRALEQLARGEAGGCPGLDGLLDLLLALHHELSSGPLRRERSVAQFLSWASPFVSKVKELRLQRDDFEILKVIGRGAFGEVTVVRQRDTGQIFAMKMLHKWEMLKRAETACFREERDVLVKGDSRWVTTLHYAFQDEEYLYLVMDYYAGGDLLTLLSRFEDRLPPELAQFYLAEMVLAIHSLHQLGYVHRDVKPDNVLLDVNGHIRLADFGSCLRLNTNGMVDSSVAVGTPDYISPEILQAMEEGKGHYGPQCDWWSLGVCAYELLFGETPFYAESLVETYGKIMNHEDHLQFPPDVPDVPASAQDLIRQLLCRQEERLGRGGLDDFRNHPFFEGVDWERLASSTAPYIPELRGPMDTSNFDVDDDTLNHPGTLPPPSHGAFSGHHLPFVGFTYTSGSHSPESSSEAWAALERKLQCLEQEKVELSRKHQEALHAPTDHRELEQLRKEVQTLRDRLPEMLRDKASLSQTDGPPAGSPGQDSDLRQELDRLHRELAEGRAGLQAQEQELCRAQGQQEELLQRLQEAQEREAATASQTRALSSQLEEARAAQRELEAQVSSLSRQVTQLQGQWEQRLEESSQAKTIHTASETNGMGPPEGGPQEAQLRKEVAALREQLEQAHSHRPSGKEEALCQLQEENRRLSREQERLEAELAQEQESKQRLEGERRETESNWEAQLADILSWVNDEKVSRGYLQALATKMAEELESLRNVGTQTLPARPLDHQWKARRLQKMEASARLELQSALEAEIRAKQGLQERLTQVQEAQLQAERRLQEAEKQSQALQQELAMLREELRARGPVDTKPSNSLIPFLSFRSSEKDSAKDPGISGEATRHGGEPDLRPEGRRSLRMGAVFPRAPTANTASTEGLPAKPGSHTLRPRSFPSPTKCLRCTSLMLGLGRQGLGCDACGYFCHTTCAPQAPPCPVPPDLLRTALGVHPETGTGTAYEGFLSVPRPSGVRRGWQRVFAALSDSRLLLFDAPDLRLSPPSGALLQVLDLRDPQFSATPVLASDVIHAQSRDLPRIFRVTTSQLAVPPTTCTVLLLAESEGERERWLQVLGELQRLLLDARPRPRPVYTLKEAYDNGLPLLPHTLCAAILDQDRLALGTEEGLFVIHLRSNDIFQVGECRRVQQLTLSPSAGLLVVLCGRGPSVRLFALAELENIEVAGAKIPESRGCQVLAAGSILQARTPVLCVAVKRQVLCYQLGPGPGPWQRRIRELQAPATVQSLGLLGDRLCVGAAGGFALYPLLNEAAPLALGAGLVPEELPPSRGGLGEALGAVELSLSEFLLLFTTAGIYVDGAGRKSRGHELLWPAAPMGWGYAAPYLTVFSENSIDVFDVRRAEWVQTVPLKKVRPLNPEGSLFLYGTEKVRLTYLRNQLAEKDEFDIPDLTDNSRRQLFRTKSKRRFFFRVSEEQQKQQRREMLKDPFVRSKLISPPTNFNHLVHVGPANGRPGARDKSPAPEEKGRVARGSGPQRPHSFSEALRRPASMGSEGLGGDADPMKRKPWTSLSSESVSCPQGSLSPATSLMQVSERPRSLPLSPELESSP
Sequence of Choline-phosphate cytidylyltransferase A (P49585 whole entry): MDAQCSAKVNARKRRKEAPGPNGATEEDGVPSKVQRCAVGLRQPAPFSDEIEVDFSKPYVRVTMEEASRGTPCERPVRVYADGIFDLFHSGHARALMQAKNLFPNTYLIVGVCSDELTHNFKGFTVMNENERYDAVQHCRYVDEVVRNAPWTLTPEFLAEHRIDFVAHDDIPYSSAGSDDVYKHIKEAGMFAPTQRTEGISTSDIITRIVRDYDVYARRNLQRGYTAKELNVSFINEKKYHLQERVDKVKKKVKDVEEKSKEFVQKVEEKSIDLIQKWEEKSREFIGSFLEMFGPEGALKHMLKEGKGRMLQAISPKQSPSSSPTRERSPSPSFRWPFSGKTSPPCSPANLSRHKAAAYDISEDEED
Sequence of Cell division cycle 7-related protein kinase (O00311 whole entry): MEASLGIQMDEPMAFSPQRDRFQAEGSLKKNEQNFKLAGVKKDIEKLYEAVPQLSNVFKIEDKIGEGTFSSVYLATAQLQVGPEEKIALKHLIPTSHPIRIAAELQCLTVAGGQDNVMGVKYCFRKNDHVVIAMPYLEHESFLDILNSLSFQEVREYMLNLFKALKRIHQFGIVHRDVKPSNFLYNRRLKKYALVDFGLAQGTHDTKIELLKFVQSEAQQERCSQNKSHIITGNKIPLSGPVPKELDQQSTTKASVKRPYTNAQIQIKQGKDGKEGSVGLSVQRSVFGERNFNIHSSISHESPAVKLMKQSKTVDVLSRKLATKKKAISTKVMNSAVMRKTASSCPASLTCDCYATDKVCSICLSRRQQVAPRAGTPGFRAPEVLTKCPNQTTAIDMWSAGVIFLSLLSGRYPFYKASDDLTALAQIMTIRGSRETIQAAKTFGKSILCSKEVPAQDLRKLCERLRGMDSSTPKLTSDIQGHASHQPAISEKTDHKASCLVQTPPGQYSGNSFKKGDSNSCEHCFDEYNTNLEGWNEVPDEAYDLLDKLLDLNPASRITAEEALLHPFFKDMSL

Take `COC(=O)N[C@@H](C)CNc1nccc(-c2cn(C(C)C)nc2-c2cc(Cl)cc(NS(C)(=O)=O)c2F)n1` [ENCORAFENIB]: the Kd in assay [1] is > 30 µM (inactive); in assay [2], > 30 µM (inactive); in assay [3], > 30 µM (inactive); in assay [4] it was > 30 µM (inactive); in assay [5], 0.041 µM; in assay [6] it was > 30 µM (inactive).
As to `CNC(=O)CN1CCC(Oc2cc3c(Nc4cccc(Cl)c4F)ncnc3cc2OC)CC1` [SAPITINIB], the Kd in assay [1], in assay [2], in assay [3], in assay [4], in assay [5] and in assay [6] was > 30 µM (inactive) in each case.
As for `CCN1CCN(Cc2ccc(-c3cc4c(N[C@H](C)c5ccccc5)ncnc4[nH]3)cc2)CC1` [AEE-788], the Kd in assay [1] was > 30 µM (inactive); in assay [2], > 30 µM (inactive); in assay [3], > 30 µM (inactive); in assay [4] it was 28.2 µM (active); in assay [5], > 30 µM (inactive); in assay [6], > 30 µM (inactive).
For the compound `CC(=O)Nc1cccc(-n2c(=O)n(C3CC3)c(=O)c3c(Nc4ccc(I)cc4F)n(C)c(=O)c(C)c32)c1` [TRAMETINIB], the Kd in assay [1], in assay [2], in assay [3], in assay [4], in assay [5] and in assay [6] was > 30 µM (inactive) in each case.
